Experiments:
[1] = system: FIPV (strain 79-1146) in CRFK cells; experiment: FIPV viral titre in cell supernatants, dose response in CRFK cells; type: cell-based, feline infectious peritonitis virus; conditions: for Decrease of FIPV virus titre: 25 µM
Method: (§1) CRFK cells were plated in a 96-well plate at a density of 2 × 10^4 cells/well and incubated for 24 h. Serial tenfold dilutions (10^–1 to 10^–6) of viral supernatants, obtained with or without cyclophilin inhibitors, were added to CRFK cells in eight replicate wells per dilution. The viral inoculum was removed 2 h after infection, and the cells were incubated for 24 h at 37 °C. The cells were fixed via sequential incubation in absolute ethanol followed by 70% ethanol (10 min each at room temperature). FIPV antigens were then detected by immunofluorescence using ascitic fluid from an infected cat (dilution 1/500), followed by incubation with an anti-cat AlexaFluor-488-conjugated secondary antibody (Jackson ImmunoResearch, West Grove, USA). Wells containing fluorescent cells were counted. The 50% infectious dose (ID50) was calculated using the Spearman–Karber method. The results are presented as the means of ≥ 2 experiments performed in triplicate.
(§2) CRFK, PK15 and Vero cells were plated in a 96-well plate at a density of 2 × 10^4 cells/well and incubated for 18 h at 37 °C. The cells were infected with FIPV (MOI of 1), TGEV (MOI of 0.5) or PEDV (MOI of 0.5). Viral inoculation was performed in the presence of F83233, F832 and F833 at concentrations ranging from 0.1 μM to 25 μM for FIPV assays and from 0.78 µM to 12.5 µM for TGEV and PEDV. Two hours after viral inoculation, fresh medium supplemented with the same concentrations of inhibitors was added. The antiviral effect was measured at the peak of viral replication, i.e., after 24 h for FIPV and PEDV infection and after 48 h for TGEV infection. The experiments were repeated twice, and each condition was tested in duplicate or triplicate in independent wells.

[2] = molecular target: T1, Human cyclophilin A (Homo sapiens, UniProt P62937); experiment: PPIase enzyme assay (chymotrypsin-coupled); type: biochemical; conditions: 20 °C, mean ± SD of two or more experiments
T1 construct: made in house
Method: Human cyclophilin A was purified, and its PPIase activity in the absence or presence of SMCypI was measured as previously described. Briefly, cyclophilin A PPIase activity was measured at 20 °C using the standard chymotrypsin-coupled assay. The assay buffer (25 mM HEPES and 100 mM NaCl, pH 7.8) and purified cyclophilin A were precooled to 4 °C. Then, 5 µL of 50 mg/mL chymotrypsin in 1 mM HCl was added (final reaction volume of 500 µL). The reaction was initiated by adding the peptide substrate Suc-Ala-Ala-Cis-Pro-Phe-pNA to a LiCl/TFE solution with rapid inversion. The absorbance of p-nitroaniline was monitored at 390 nm until the reaction was complete, i.e., when the absorbance reached a plateau (1 min). The final concentration of LiCl in the assay was 20 mM, and TFE was present at a concentration of 4% (v/v). The absorbance was measured every second using a spectrophotometer (BioMate3, Thermo Fischer Scientific). For the inhibition assessment, 5 µL of the tested compound in dimethyl sulfoxide (DMSO) was added to the cyclophilin A solution in the assay buffer. CsA (Sigma‒Aldrich, Saint-Louis, USA) was used as a positive control for PPIase inhibition in all measurements. IC50 values were calculated from dose‒response curves and reported as the mean ± standard deviation of two or more experiments.

[3] = system: CRFK cells; experiment: Cytotoxicity assay (CellTiter-Glo); type: cell-based, feline; conditions: 24 h, up to 25 µM
Method: The cells were plated in a 96-well plate at a density of 2 × 10^4 cells/well and incubated for 24 h. The culture medium was replaced with serial dilutions of culture medium containing three replicates of different concentrations (ranging from 0.9 μM to 25 μM) of F83233, F832 and F833 molecules, DMSO or media alone as controls. The plates were incubated for 24 h at 37 °C. Cytotoxicity was evaluated with the CellTiter-Glo Cell Viability Assay Kit (Promega, Madison, USA).

[4] = system: PEDV (CV777 strain) in Vero cells; experiment: PEDV infection in Vero cells, immunofluorescence, infected area; type: cell-based, porcine epidemic diarrhoea virus; conditions: for Antiviral potency against PEDV: MOI 0.5, 24 h, 0.78-12.5 µM
Method: as §2
(§3) Fixed PK15 and Vero cells were processed similarly. TGEV infection was detected with a homemade anti-spike antibody (called 51.13 [46, 47], dilution 1/10 000) from a mouse and with an anti-mouse AlexaFluor-555-conjugated secondary antibody. PEDV infection was detected with polyclonal antibodies from pigs (a gift from Drs. Y. Blanchard and M. Contrant, Anses, Ploufragan, dilution 1/300) and with an anti-pig AlexaFluor-488-conjugated secondary antibody (SouthernBiotech, Birmingham, USA). […] (J2 from Cell Signaling Technology, Danvers, USA, dilution 1/1000), followed by incubation with an anti-mouse AlexaFluor-555-conjugated secondary antibody. The cells were counterstained with DAPI (Sigma‒Aldrich, final concentration of 1 µg/mL). Secondary antibodies (with the exception of the anti-pig at a 1/400 dilution) were used at a 1/800 dilution and were obtained from Molecular Probes (Thermo Fischer Scientific).
(§4) For each concentration of F832, F833 or F83233, 3 to 5 pictures were randomly taken with an epifluorescence microscope (Zeiss, Oberkochen, Germany) with a 10X objective. The area of staining was measured with ImageJ. The number of nuclei/syncytia (defined as PEDV-positive cells with > 4 nuclei) in PEDV-infected cells was manually counted using ImageJ. Blind analysis was performed to avoid bias.

[5] = system: TGEV (Purdue strain) in PK15 cells; experiment: TGEV infection in PK15 cells, immunofluorescence, infected area; type: cell-based, transmissible gastroenteritis virus; conditions: for Effect on TGEV infection: 12.5 µM
Method: as §2, §3, §4

[6] = system: PEDV (CV777 strain) in Vero cells; experiment: PEDV-induced syncytium formation and dsRNA staining in Vero cells; type: cell-based, porcine epidemic diarrhoea virus; conditions: 12.5 µM
From the text: as §3, §4

[7] = system: FIPV (strain 79-1146) in CRFK cells; experiment: SMCypI screening for FIPV infection, viral titre by end-point dilution; type: cell-based, feline infectious peritonitis virus; conditions: 50 µM SMCypI, MOI 1, 24 h
Method: CRFK cells were plated in a 96-well plate at a density of 2 × 10^4 cells/well and incubated for 24 h. The cells were infected for 1 h with FIPV at a multiplicity of infection (MOI) of 1 in the presence of 50 µM or 10 µM SMCypI or CsA, respectively. The inoculum was removed after 1 h, and inhibitors (50 μM SMCypI or 10 μM CsA) were added for 24 supplemental hours. The supernatants were collected and stored at −80 °C prior to the end-point dilution assays.
as §1, with “The results are presented as the means of ≥ 2 experiments performed in triplicate.” left out

[8] = system: FIPV in CRFK cells; experiment: Time-of-drug addition assay; type: cell-based, feline infectious peritonitis virus
Method: as §1
CRFK cells were plated in a 96-well plate at a density of 2 × 10^4 cells per well and incubated for 24 h. The cells were infected with FIPV at an MOI of 1 in the presence of 5 µM F83233 (for 0 h post-infection (pi)) or in the presence of DMSO (for the other time points). After viral inoculation, the culture medium was removed, fresh medium containing 5 μM F83233 was added at 1, 3, 6, 9 or 18 h post-infection, and infection was stopped at 24 h post-inoculation. The cell supernatants were stored at −80 °C prior to end-point dilution to measure the effect of F83233 on FIPV infectivity under different conditions. The experiment was repeated three times, and each condition was tested in triplicate.

[9] = 5 µM F83233, FIPV MOI 1, CRFK cells

T1 sequence (P62937 whole entry): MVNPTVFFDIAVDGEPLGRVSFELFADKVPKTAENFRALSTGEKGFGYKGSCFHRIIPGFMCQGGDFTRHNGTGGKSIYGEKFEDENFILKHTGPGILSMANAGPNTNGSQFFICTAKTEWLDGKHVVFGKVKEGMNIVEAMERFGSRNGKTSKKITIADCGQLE

SMILES	Decrease of FIPV virus titre ([1]; 24 h)	IC50 [2]	Cytotoxicity [3]	Antiviral potency against PEDV [4]	Effect on TGEV infection ([5]; MOI 0.5, 48 h)	Reduction in FIPV viral titre ([1]; 5 µM, 24 h)	FIPV viral reduction ([1]; 10 µM)	Maximal inhibitory effect, decrease of FIPV titre ([1]; 12.5 µM, 24 h)	Double-strand RNA staining (viral genome replication) in syncytia [6]	Size of PEDV-induced syncytia and number of nuclei per syncytium [6]	Inhibition of FIPV titre [7]	Decrease of antiviral efficiency between addition at 1 and 3 h post-infection [8, 9]	Time of addition giving the maximal antiviral effect [8, 9]	Inhibition of FIPV titre compared with DMSO control ([8]; 5 µM F83233 added 18 h post-infection)	Effect on PEDV infection ([4]; 3.125 µM, 24 h)	Effect on TGEV-infected cells ([5]; 6.25 µM and 12.5 µM, 48 h)	Concentration at which active against TGEV ([5]; MOI 0.5, 48 h)
O=C(NCc1ccc2c(c1)CCCN2)NC(C(=O)N1CCCC1c1cccc2ccsc12)c1ccccc1 (stereo not shown) [Compound F832]	≈ 0.5 Log10	400 ± 90 nM	low cytotoxicity	modest antiviral potency	no significant effect												
Nc1ccc(CNC(=O)NC(C(=O)N2CCCC2c2cccc3ccsc23)C2CCCCC2)cc1 (stereo not shown) [Compound F833]	≈ 0.5 Log10	600 ± 100 nM	low cytotoxicity	modest antiviral potency	no significant effect												
O=C(NCc1ccc2c(c1)CCCN2)NC(C(=O)N1CCCC1c1cccc2ccsc12)C1CCCCC1 (stereo not shown) [Compound F83233]	≈ 3 Log10	700 ± 500 nM	low cytotoxicity			approximately 2 Log10	approximately 3 Log10	3–4 Log10	markedly impacted	drastically decreased	more than 4 Log10	more than 1 Log10	simultaneously with the virus or 1 h later	≈ 1 Log10	important reduction in infection	almost complete disappearance of infected cells	1.6 µM

— publication PMC12590632, “Identification and characterization of a nonpeptidic cyclophilin ligand with antiviral activity against feline and porcine α-coronaviruses” (Veterinary Research, 2025)
